In general, IC50 refers to the concentration that gives 50% inhibition.

“And” between values parts separate entries of the source, which are not always exact repeats. Equal entries are not always repeated.

This is an account of results in paper PMC6201084 (Antimicrobial Agents and Chemotherapy, 2018).

Assay [1] addresses neuraminidase (NA) of influenza B/Singapore/GP702/2015 (MUT-N197, D197N NA substitution) (Influenza B virus, UniProt A0A1S5RAG6, D197N). It is filed as biochemical.
Assay [2] has as its target neuraminidase (NA) of influenza B/Perth/136/2015 (MUT-Y273, H273Y NA substitution) (Influenza B virus, UniProt A0A1S5RAG6, H273Y). It is filed as biochemical.

As to `CCC(CC)[C@H](NC(C)=O)[C@@H]1[C@H](O)[C@@H](C(=O)O)C[C@H]1N=C(N)N` [Peramivir, peramivir], the “Fold difference in IC50 from corresponding wild-type value” in assay [1] is 3.0 ± 0.7 (3) fold; in assay [2], 85 fold and 80.9 ± 6.8 (85)^b fold. For the same molecule, the IC50 in assay [1] (read-out: IC50 (nM), mean ± SD) was 3 nM; in assay [2] (read-out: IC50 (nM), mean ± SD) it was 80.9 nM.
